Experimental data reported in patent US8101550B2, “Anthranilic acid diamide derivative with hetero-aromatic and hetero-cyclic substituents” (Bayer Cropscience AG, priority 2006, dated 2012).
Where two headings read alike, the source gives them in different places.

Assays:
[1] = test system: caterpillars of the armyworm (Spodoptera frugiperda); test: Spodoptera frugiperda test (cabbage leaves, immersion); format: in vivo; settings: cabbage leaves immersed
Description: An appropriate preparation of active compound is prepared by mixing 1 part by weight of active compound with the stated amounts of solvent and emulsifier and diluting the concentrate with emulsifier-containing water to the desired concentration.
Cabbage leaves (Brassica oleracea) are treated by immersion into a preparation of active compound at the desired concentration and, are populated with caterpillars of the armyworm (Spodoptera frugiperda) while the leaves are still wet.
After the desired time the effect in % is determined. 100% means that all of the caterpillars have been killed; 0% means that no caterpillars have been killed.
Cabbage leaves (Brassica oleracea) are treated by immersion into a preparation of active compound at the desired concentration and are populated with caterpillars of the armyworm (Spodoptera frugiperda) while the leaves are still wet.

[2] = log P determination by HPLC on reverse-phase column (EEC Directive 79/831 Annex V.A8); format: physicochemical
Procedure, shortened: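 Reverse-phase C18 HPLC at 43 °C, following EEC Directive 79/831 Annex V.A8. Acidic LC-MS used pH 2.7 eluents (0.1% aqueous formic acid and acetonitrile with 0.1% formic acid) on a 10–95% acetonitrile linear gradient. Log P was interpolated linearly from retention times against unbranched C3–C16 alkan-2-ones of known log P.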

Row | Compound | Kill level after 7 d in % ([1]; 100 g/ha) [%] | logP ([2]; HPLC on reverse-phase column) | other results
1 | CNC(=O)c1cc(Cl)cc(C)c1NC(=O)c1cc(Cn2nc(C(F)(F)C(F)(F)F)nc2C(F)(F)C(F)(F)F)nn1-c1ncccc1Cl [I-1-26] | 100 | 4.17 | –
2 | CNC(=O)c1cc(Br)cc(C)c1NC(=O)c1cc(Cn2nc(C(F)(F)C(F)(F)F)cc2C(F)(F)C(F)(F)F)nn1-c1ncccc1Cl [I-1-24] | 100 | 4.49 | –
3 | Cc1cc(Cl)cc(C(=O)NC(C)C)c1NC(=O)c1cc(Cn2cc(C#N)cn2)nn1-c1ncccc1Cl [I-1-8] | 100 | 2.57 | Kill level after 7 d in % ([1]; 0.8 g/ha): 100%
4 | Cc1cc(Cl)cc(C(=O)NCC#N)c1NC(=O)c1cc(Cn2cc(Cl)c(C(F)(F)C(F)(F)F)n2)nn1-c1ncccc1Cl [I-1-32] | 100 | 3.70 | –
5 | CNC(=O)c1cc(Cl)cc(C)c1NC(=O)c1cc(Cn2cc(Cl)c(C(F)(F)F)n2)nn1-c1ncccc1Cl [I-1-17] | 100 | 3.35 | –
6 | Cc1cc(Cl)cc(C(=O)NC(C)C)c1NC(=O)c1cc(Cn2cc(Cl)c(C(F)(F)C(F)(F)F)n2)nn1-c1ncccc1Cl [I-1-31] | 100 | 4.21 | –
7 | Cc1cc(Cl)cc(C(=O)NC(C)C)c1NC(=O)c1cc(Cn2nc(C(F)(F)C(F)(F)F)nc2C(F)(F)C(F)(F)F)nn1-c1ncccc1Cl [I-1-29] | 100 | 4.64 | –
8 | CNC(=O)c1cc(Br)cc(C)c1NC(=O)c1cc(Cn2nc(C(F)(F)C(F)(F)F)nc2C(F)(F)C(F)(F)F)nn1-c1ncccc1Cl [I-1-39] | 100 | 4.31 | –
9 | Cc1cc(Cl)cc(C(=O)NC(C)C)c1NC(=O)c1cc(Cn2cncn2)nn1-c1ncccc1Cl [I-1-21] | 100 | 2.02 | –
10 | CNC(=O)c1cc(Cl)cc(C)c1NC(=O)c1cc(Cn2nc(C(F)(F)F)nc2C(F)(F)F)nn1-c1ncccc1Cl [I-1-35] | 100 | 3.43 | –
11 | Cc1cc(Cl)cc(C(=O)NC(C)C)c1NC(=O)c1cc(Cn2nc(C(F)(F)C(F)(F)F)c(C(F)(F)F)c2F)nn1-c1ncccc1Cl [I-1-28] | 100 | 4.63 | –
12 | Cc1cc(Cl)cc(C(=O)NC(C)C)c1NC(=O)c1cc(Cn2nc(C(F)(F)F)nc2C(F)(F)F)nn1-c1c(Cl)cccc1Cl [I-1-40] | 100 | 4.58 | –
13 | Cc1cc(Cl)cc(C(=O)NC(C)C)c1NC(=O)c1cc(Cn2nc(C(F)(F)F)cc2C(F)(F)F)nn1-c1ccccc1Cl [I-1-10] | 100 | 4.70 | –
14 | CNC(=O)c1cc(Cl)cc(C)c1NC(=O)c1cc(Cn2nc(C(F)(F)C(F)(F)F)cc2C(F)(F)C(F)(F)F)nn1-c1ncccc1Cl [I-1-27] | – | 4.45 | Kill level after 7 d in % ([1]; 20 g/ha): 83%
15 | CNC(=O)c1cc(Cl)cc(C)c1NC(=O)c1cc(Cn2nc(C(F)(F)F)cc2C(F)(F)F)nn1-c1ncccc1Cl [I-1-1, 5-(3,5-Bis-trifluoromethylpyrazol-1-ylmethyl)-2-(3-chloropyridin-2-yl)-2H-pyrazole-3-carboxylic acid 4-chloro-2-methyl-6-methylcarbamoylphenyl amide] | 100 | – | chromatographic logP ([2]; pH 2.7): 3.67
16 | Cc1cc(Cl)cc(C(=O)NC(C)C)c1NC(=O)c1cc(Cn2cc(F)cn2)nn1-c1ncccc1Cl [I-1-7] | 100 | 2.70 | –
17 | Cc1cc(Br)cc(C(=O)NC(C)C)c1NC(=O)c1cc(Cn2nc(C(F)(F)F)cc2C(F)(F)F)nn1-c1ncccc1Cl [I-1-20] | 100 | 4.16 | –
18 | Cc1cc(Cl)cc(C(=O)NC(C)C)c1NC(=O)c1cc(Cn2nc(C(F)(F)F)nc2C(F)(F)F)nn1-c1ncccc1Cl [I-1-5] | 100 | 3.88 | Kill level after 7 d in % ([1]; 0.8 g/ha): 100%
19 | CNC(=O)c1cc(Cl)cc(C)c1NC(=O)c1cc(Cn2cc(I)c(C(F)(F)C(F)(F)F)n2)nn1-c1ncccc1Cl [I-1-16] | 100 | 3.79 | –
20 | Cc1cc(Cl)cc(C(=O)NC(C)C)c1NC(=O)c1cc(Cn2nc(C(F)(F)F)cc2C(F)(F)F)nn1-c1ncccc1Cl [I-1-2] | 100 | 4.08 | –
21 | CNC(=O)c1cc(Cl)cc(C)c1NC(=O)c1cc(Cn2nc(C(F)(F)F)cc2C(F)(F)F)nn1-c1ccccc1Cl [I-1-11] | 100 | 4.12 | –
22 | CNC(=O)c1cc(Cl)cc(C)c1NC(=O)c1cc(Cn2cc(Br)c(C(F)(F)C(F)(F)F)n2)nn1-c1ncccc1Cl [I-1-34] | 100 | 3.80 | –
23 | Cc1cc(Cl)cc(C(=O)NC(C)C)c1NC(=O)c1cc(Cn2cc(C(F)(F)C(F)(F)F)c(C(F)(F)C(F)(F)F)n2)nn1-c1ncccc1Cl [I-1-12] | 100 | 4.89 | –
24 | CNC(=O)c1cc(Cl)cc(C)c1NC(=O)c1cc(Cn2ccc(C(F)(F)C(F)(F)F)n2)nn1-c1ncccc1Cl [I-1-19] | 100 | 3.29 | –
25 | CNC(=O)c1cc(Br)cc(C)c1NC(=O)c1cc(Cn2cc(C(F)(F)C(F)(F)F)c(C(F)(F)C(F)(F)F)n2)nn1-c1ncccc1Cl [I-1-25] | 100 | 4.39 | –

Row | Compound | Kill level after 7 d in % ([1]; 100 g/ha) [%] | logP ([2]; HPLC on reverse-phase column) | other results
26 | Cc1cc(Cl)cc(C(=O)NC(C)C)c1NC(=O)c1cc(Cn2cccn2)nn1-c1ncccc1Cl [I-1-9] | 100 | 2.45 | –
27 | CNC(=O)c1cc(Br)cc(C)c1NC(=O)c1cc(Cn2nc(C(F)(F)F)nc2C(F)(F)F)nn1-c1ncccc1Cl [I-1-36] | 100 | 3.52 | –
28 | Cc1cc(Cl)cc(C(=O)NC(C)C)c1NC(=O)c1cc(Cn2ccc(C(F)(F)C(F)(F)F)n2)nn1-c1ncccc1Cl [I-1-18] | 100 | 3.75 | –
29 | CC(C)NC(=O)c1cc2ccccc2c(Cl)c1NC(=O)c1cc(Cn2nc(C(F)(F)F)cc2C(F)(F)F)nn1-c1ncccc1Cl [I-3-1] | – | – | logP ([2]; HPLC, reverse-phase column (C 18), 43° C., acidic range pH 2.7): 4.08
30 | CNC(=O)c1cc(Cl)cc(C)c1NC(=O)c1cc(Cn2cc(I)c(I)n2)nn1-c1ncccc1Cl [I-1-110] | – | 3.13 | –
31 | Cc1cc(Cl)cc(C(=O)NCC#N)c1NC(=O)c1cc(Cn2nc(C(F)(F)F)nc2C(F)(F)F)nn1-c1ncccc1Cl [I-1-49] | – | 3.97 | –
32 | Cc1cc(C#N)cc(C(=O)NC(C)C)c1NC(=O)c1cc(Cn2nc(C(F)(F)F)nc2C(F)(F)F)nn1-c1ncccc1Cl [I-1-177] | – | – | logP [2]: 3.53
33 | Cc1cc(Cl)cc(C(=O)NC(C)(C)C[S+](C)[O-])c1NC(=O)c1cc(Cn2nc(C(F)(F)F)nc2C(F)(F)F)nn1-c1ncccc1Cl (centres unmarked) [I-1-137] | – | 3.22 | –
34 | Cc1cc(Cl)cc(C(=O)NC(C)C)c1NC(=O)c1cc(Cn2ccc(Cl)n2)nn1-c1ncccc1Cl [I-1-103] | – | 2.96 | –
35 | C[C@@H](CS(C)(=O)=O)NC(=O)c1cc(Cl)cc(Cl)c1NC(=O)c1cc(Cn2cc(C(F)(F)C(F)(F)F)c(C(F)(F)C(F)(F)F)n2)nn1-c1ncccc1Cl [I-1-328] | – | – | logP [2]: 3.63
36 | Cc1cc(C#N)cc(C(=O)NC2CC2)c1NC(=O)c1cc(Cn2cnc(C(F)(F)C(F)(F)F)n2)nn1-c1ncccc1Cl [I-1-338] | – | – | logP [2]: 2.45
37 | Cc1cc(F)cc(C(=O)NC(C)C)c1NC(=O)c1cc(Cn2cc(Cl)c(C(F)(F)C(F)(F)F)n2)nn1-c1ncccc1Cl [I-1-224] | – | – | logP [2]: 3.89
38 | Cc1cc(Cl)cc(C(=O)NC(C)C)c1NC(=O)c1cc(Cn2nnn(-c3c(C)cccc3Cl)c2=O)nn1-c1ncccc1Cl [I-1-51] | – | 3.52 | –
39 | Cc1cc(Br)cc(C(=O)NC(C)(C)C[S+](C)[O-])c1NC(=O)c1cc(Cn2nc(C(F)(F)F)nc2C(F)(F)F)nn1-c1ncccc1Cl (centres unmarked) [I-1-144] | – | 3.38 | –
40 | Cc1cc(Cl)cc(C(=O)NCC#N)c1NC(=O)c1cc(Cn2cnc(C(F)(F)C(F)(F)F)n2)nn1-c1ncccc1Cl [I-1-332] | – | – | logP [2]: 2.59
41 | Cc1cc(C#N)cc(C(=O)NC(C)C)c1NC(=O)c1cc(Cn2cc(Cl)c(C(F)(F)C(F)(F)F)n2)nn1-c1ncccc1Cl [I-1-172] | – | – | logP [2]: 3.87
42 | CNC(=O)c1cc(Cl)cc(C)c1NC(=O)c1cc(Cn2nc(C(F)(F)C(F)(F)F)nc2C(F)(F)F)nn1-c1ncccc1Cl [I-1-86] | – | 3.78 | –
43 | Cc1cc(Cl)cc(C(=O)NC(C)C)c1NC(=O)c1cc(Cn2nnc(-c3ccccc3)n2)nn1-c1ncccc1Cl [I-1-166] | – | – | logP [2]: 3.60
44 | Cc1cc(I)cc(C(=O)NC2CCCCCCCCCCC2)c1NC(=O)c1cc(Cn2nc(C(F)(F)F)nc2C(F)(F)F)nn1-c1ncccc1Cl [I-1-280] | – | – | logP [2]: 6.56
45 | CC(C)NC(=O)c1cc(Cl)cc(Cl)c1NC(=O)c1cc(Cn2cnc(C(F)(F)C(F)(F)F)n2)nn1-c1ncccc1Cl [I-1-327] | – | – | logP [2]: 2.97
46 | CC(C)NC(=O)c1cc(Cl)cc(Cl)c1NC(=O)c1cc(Cn2cc(C(F)(F)C(F)(F)F)c(C(F)(F)C(F)(F)F)n2)nn1-c1ncccc1Cl [I-1-294] | – | – | logP [2]: 4.00
47 | Cc1cc(Cl)cc(C(=O)NC(C)C)c1NC(=O)c1cc(Cn2nc(C)c(Br)c2C)nn1-c1ncccc1Cl [I-1-269] | – | – | logP [2]: 3.4
48 | Cc1cc(F)cc(C(=O)NC(C)C)c1NC(=O)c1cc(Cn2nc(C(F)(F)F)cc2C(F)(F)F)nn1-c1ncccc1Cl [I-1-225] | – | – | logP [2]: 3.77
49 | CNC(=O)c1cc(F)cc(C)c1NC(=O)c1cc(Cn2cc(C(F)(F)C(F)(F)F)c(C(F)(F)C(F)(F)F)n2)nn1-c1ncccc1Cl [I-1-220] | – | – | logP [2]: 4.06
50 | Cc1cc(I)cc(C(=O)NC(C)C2CC2)c1NC(=O)c1cc(Cn2cc(Cl)c(C(F)(F)C(F)(F)F)n2)nn1-c1ncccc1Cl (centres unmarked) [I-1-287] | – | – | logP [2]: 4.69
